# Source: patent US11643670B2, “Methods of enhancing chromosomal homologous recombination” (Massachusetts Institute of Technology, priority 2018, dated 2023)
# Legend:
# [1] = biological target: T1, Cas9 (Streptococcus pyogenes serotype M1, UniProt Q99ZW2); assay: In vitro Cas9 digestion assay; format: biochemical, S. pyogenes; settings: 10 ng/μL protein co-incubated, PCR amplimer of the Chd2^R1684H locus, 37° C. 1 hour
# T1 construct: NLS (nuclear localization signal); purchased New England Biolabs
# T1 sequence (Q99ZW2 whole entry): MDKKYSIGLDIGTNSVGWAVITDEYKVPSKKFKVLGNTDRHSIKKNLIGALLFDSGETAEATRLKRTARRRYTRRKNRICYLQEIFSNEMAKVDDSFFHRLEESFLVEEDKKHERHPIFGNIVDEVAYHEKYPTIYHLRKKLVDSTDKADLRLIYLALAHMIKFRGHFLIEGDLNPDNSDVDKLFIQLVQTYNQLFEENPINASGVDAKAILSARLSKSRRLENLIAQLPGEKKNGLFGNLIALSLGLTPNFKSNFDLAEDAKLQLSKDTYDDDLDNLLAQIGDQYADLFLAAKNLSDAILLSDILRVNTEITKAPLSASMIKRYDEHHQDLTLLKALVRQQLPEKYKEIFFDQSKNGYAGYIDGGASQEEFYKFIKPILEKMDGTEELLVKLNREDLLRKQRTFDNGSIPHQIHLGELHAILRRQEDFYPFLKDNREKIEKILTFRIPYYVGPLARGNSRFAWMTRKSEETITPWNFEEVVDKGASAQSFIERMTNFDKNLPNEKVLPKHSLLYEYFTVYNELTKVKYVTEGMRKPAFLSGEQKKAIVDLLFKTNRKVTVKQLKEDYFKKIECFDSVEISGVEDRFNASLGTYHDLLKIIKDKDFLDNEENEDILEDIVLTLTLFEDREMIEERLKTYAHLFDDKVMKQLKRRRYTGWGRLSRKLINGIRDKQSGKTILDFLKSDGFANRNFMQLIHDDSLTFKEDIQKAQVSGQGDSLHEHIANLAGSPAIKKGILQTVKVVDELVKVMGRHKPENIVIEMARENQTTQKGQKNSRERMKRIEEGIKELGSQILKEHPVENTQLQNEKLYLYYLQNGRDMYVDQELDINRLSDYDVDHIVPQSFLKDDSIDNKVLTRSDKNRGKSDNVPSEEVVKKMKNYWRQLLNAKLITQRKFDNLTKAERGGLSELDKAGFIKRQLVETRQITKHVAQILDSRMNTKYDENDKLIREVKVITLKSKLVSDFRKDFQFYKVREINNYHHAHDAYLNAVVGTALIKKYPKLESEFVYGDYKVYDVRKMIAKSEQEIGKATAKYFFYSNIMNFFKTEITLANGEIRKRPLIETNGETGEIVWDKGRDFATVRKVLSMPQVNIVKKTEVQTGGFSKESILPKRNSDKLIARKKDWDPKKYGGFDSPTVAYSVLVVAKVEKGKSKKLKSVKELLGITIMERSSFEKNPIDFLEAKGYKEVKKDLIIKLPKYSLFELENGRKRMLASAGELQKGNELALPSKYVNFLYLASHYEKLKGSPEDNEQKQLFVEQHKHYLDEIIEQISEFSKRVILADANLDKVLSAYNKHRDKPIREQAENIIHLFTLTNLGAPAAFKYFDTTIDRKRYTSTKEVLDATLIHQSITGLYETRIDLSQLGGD
# Experimental: Wildtype or Chd2^R1684H/R1684H genomic DNA was used as input for PCR using the conditions described above and the primers specified in FIGS. 10A-10D and FIG. 12. After confirmation of a single band via gel electrophoresis, the PCR reactions were purified using the DNA Clean & Concentrator kit (Zymo) according to the manufacturer's instructions. crRNA and tracrRNA were diluted 1 μM in nuclease-free Duplex Buffer (IDT) and incubated at 95° C. for 5 minutes before being allowed to cool to room temperature on the bench. Digestion mixtures were made in separate tubes by combining nuclease-free water, 10× Cas9 Nuclease Reaction Buffer (final concentration 1×, New England Biolabs), 1 μL of the cooled crRNA/tracrRNA duplex, and, if necessary, 1 μL of EnGen Cas9 NLS, S. pyogenes (New England Biolabs). These mixtures were heated to 37° C. for 10 minutes before adding 250 ng PCR product and, if necessary, RAD51 G151D (10 ng/μL final concentration, custom-produced by Creative Biomart) or BCCIP (10 ng/μL final concentration, Origene TP303061). Digestion was performed at 37° C. for 1 hour, Cas9 was denatured at 95° C., 6× Purple Gel Loading Dye (New England Biolabs) was added to a final concentration of 1×, and the samples were allowed to passively cool to room temperature. […]
# [2] = test system: maternal Chd2 locus; assay: Donor-free interchromosomal homologous recombination (ICHR) in IVF-derived Chd2^R1684H/+ embryos; format: cell-based, mouse
# Experimental: tracrRNA, crRNAs, and ssODNs were synthesized by Integrated DNA Technologies (TABLE 1). All injection mixtures were prepared in a final volume of 50 μL according to the following methodology: Using RNase-free water, reagents, and consumables, crRNA (final concentration 0.61 μM), tracrRNA (final concentration 0.61 μM), and ultrapure Tris-HCl, pH 7.39 (final concentration 10 mM, ThermoFisher) were mixed and incubated at 95° C. for 5 minutes. The mixtures were cooled to room temperature for 10 minutes on the benchtop, and then, EnGen Cas9-NLS S. pyogenes (New England Biolabs) was added to a final concentration of 30 ng/μL. The mixtures were incubated at 37° C. for 15 minutes before adding any remaining components: ssODN (final concentration 3 ng/μL or 30 ng/μL), RAD51 (Creative Biomart, final concentration 10 ng/μL). Injection mixtures were stored on ice and briefly heated to 37° C. prior to injection. For experiments utilizing RS-1, embryos were cultured in KSOM-AA (EMD Millipore MR-121-D) with […] RS-1 (Sigma) dissolved in DMSO or DMSO (Sigma, 1:1000) for 24 hours, washed, and cultured in EmbryoMax FHM HEPES Buffered Medium (Sigma) until collection for genotyping.
# For experiments using wildtype recombinant proteins, the following proteins were used: RAD51 (Creative Biomart RAD51-134H), USP1/WDR48 (Creative Biomart USP1&WDR48-1067H), BCCIP (Origene TP303061), XRCC1 (TP304952), XRCC4 (Origene TP312684), DMC1 (Origene TP318311). For experiments using mutant RAD51, custom RAD51 preparations were produced by Creative Biomart according to their standard protocol for producing the wildtype RAD51 used in all other experiments. Mutant DNA sequences used for cloning are described in TABLE 2. All RAD51 mutants were modeled in human RAD51 transcript variant 4 (NCBI accession NM_001164269), as this is the transcript variant of the wildtype RAD51-134H protein used in all other experiments.
# In vitro fertilization was performed using FERTIUP® Mouse Preincubation Medium and CARD MEDIA (Kyudo Company) according to the manufacturer's protocol. Non-virgin Chd2^R1684H/R1684H males that were >8 weeks old were used as sperm donors. Following IVF, embryos were cultured for 8 hours and then injected using the PNI protocol described below.
# For all experiments except those described in FIG. 6, the male pronucleus was injected. Injections performed for the CPI portion of FIG. 6 were targeted to the cytoplasm. All microinjections were performed using a Narishige Micromanipulator, Nikon Eclipse TE2000-S microscope, and Eppendorf 5242 microinjector. Individual zygotes were injected with 1-2 pL of injection mixture using an “automatic” injection mode set according to needle size and adjusted for clear increase in pronuclear volume. Following injections, cells were cultured in KSOM-AA until collection for genotyping. For experiments giving rise to F0 animals, embryos were surgically implanted into pseudopregnant CD-1 females (Charles River Laboratories, Strain Code 022) 24-hours post-injection and allowed to develop normally until natural birth.
# Embryos were collected at morula-to-blastocyst stage in 4 μL nuclease-free water. After collection, 4 μL of 2× embryo digestion buffer was added to each sample (final concentrations: 125 μg/mL proteinase K, 100 mM Tris-HCl pH 8.0, 100 mM KCl, 0.02% gelatin, 0.45% Tween-20, 60 μg/mL yeast tRNA) and embryos were lysed for 1 hour at 56° C. Proteinase K was inactivated via incubation at 95° C. for 10 minutes and DNA was stored at −20° C. until use.
# Chd2^R1684H genotyping was performed via a two-step, nested approach. Except for experiments described in FIGS. 3A-3G, all 8 μL of embryo DNA were used as input for the initial, long round of PCR. Genotyping of mouse pups and adult animals was performed using 2 μL of purified tail DNA. For all embryo genotyping, reactions mixtures were set up in a UV-sterilized laminar flow hood using sterile reagents and filter tips to avoid contamination. […]
# [3] = co-injected with Cas9/crRNA/tracrRNA, no donor
# [4] = compared to embryos injected with wildtype RAD51
Substance,direct inhibition of Cas9 nuclease activity [1],efficiency of ICHR stimulation [2] [%],embryos with mosaic ICHR that were mosaic with an indel [2],indel-to-ICHR ratio (level) [2],"ICHR rate compared with baseline (Cas9-only embryos) [2, 3]","edited embryos showing ICHR [2, 3] [%]",indel-to-ICHR ratio ([2]; compared to control embryos),overall indel rate ([2]; compared to control embryos),"indel-to-ICHR ratio [2, 4]","overall indel rate [2, 4]",effect on mosaicism in embryos exhibiting ICHR ([2]; compared to enhancer-free embryos)
"G151D: recombinant RAD51 gain-of-function mutant with increased strand exchange activity, SEQ ID NO: 8",did not observe any direct inhibition of Cas9 activity,,,,,,,,,,
BCCIP: recombinant BRCA2-interacting protein BCCIP (Origene TP303061),not due to direct inhibition of Cas9 activity,~100,1/14,near zero,significantly stronger effect on ICHR rates than USP1/WDR48,95,drastic decrease,drastic decrease,significant decreases,significant decreases,strong effect on mosaicism
